Experimental data from patent US6022696A, “Methods of identifying agonists or antagonists of angiotensin IV” (Washington State University Research Foundation, priority 1998, dated 2000).

Experiment: Stability of angiotensin peptides in binding assay buffer / assay conditions
Assay type: physicochemical
Conditions: 4 h at 37° C., reverse phase HPLC

Structure (SMILES): CC[C@H](C)[C@H](NC(=O)[C@H](Cc1ccc(O)cc1)NC(=O)[C@@H](N)C(C)C)C(=O)N[C@@H](Cc1cnc[nH]1)C(=O)N1CCC[C@H]1C(=O)N[C@@H](Cc1ccccc1)C(=O)O [AIV, Val1 Tyr2 Ile3 His4 Pro5 Phe6]
- hydrolysis in binding buffer: less than 10%
